Test results published in the OligoGym collection.
These antisense oligonucleotides have a phosphorothioate backbone; sugars and methylation of C are not fully specified.

Target: CHEK2
Details: ASO
Further: test concentration or dose not given here.

Sequence	remaining target (mRNA or protein) (fraction of control)
TAATCTTTATAAGACAGTCC	0.88
CCATTGCCACTGTGATCTTC	0.46
GACGGCGTTTTCCTTTCCCT	0.49
AGAATAACTCCTAAACTCCA	0.82
GTACTGCACAGCCAAGAGCA	0.79
GACTTCAGGAATGAAGTTGT	≥ 1
AATCCGAAAGTGTTTCTTGC	≥ 1
TGTTCAAACCACGGAGTTCA	0.62
AAACTTTCTCTTCATGTCTT	≥ 1
AAGGGCCCATAATCGAGCCC	0.78
AGGAATAGAATAGAGTTCCT	≥ 1
ATTTCTGCTTAGTGACAGTG	0.65
ATTCTCTGGCTTTAAGTCAC	0.63
TCCACAGCACGGTTATACCC	0.28
AACTTCTTGACAAGGTCCAG	0.8
GTAGAGCTGTGGATTCATTT	0.67
TCCTTTTGCTGATGATCTTT	0.57
CCACGGAGTTCACAACACAG	0.74
CAGTGTCCCAGAGCTGGAGT	≥ 1

Sequence	remaining target (mRNA or protein) (fraction of control)
CTCTCGAAAGCCAGCTTTAC	0.31
TTTTAATCTTGATGATGCAA	0.71
TCAGCAGTGGTTCATCAAAG	0.63
GAAGCCACGGGTGTCTTAAG	0.86
TGAGATGACAGTAAAACATT	≥ 1
AAGGCTTCTTCTGTCGTAAA	0.96
CATGAGAGAGGTCTCTCCCA	0.85
TTTATTCCCCACCACTTTGT	0.38
TATTCCATAATTAAATCCAA	≥ 1
TATTCATCTCTTAATGCCTT	0.61
CGTGCTGGTAGAGGAGCTGG	0.77
GAGAGCTGGGTCTGCCTCTC	0.73
TTCTCTGAGACTTCTGCCCA	0.49
AGCAGTCCCAACAGAAACAA	0.95
TCAGTGACACTTGAGTCCTA	0.87
CAGAGTGAAAGAAGGACATT	≥ 1
AACATCCGACTCCCGAGACA	0.65
CAGTAGTTGTCATTCACACA	0.49

Target: RIPK2
Details: ASO

Sequence	remaining target (mRNA or protein) (fraction of control)
AAAACAGTCACTTACATGCT	0.52
ATTTTCATGGAGCTGAGAGG	0.68
AAGCCTGGGATTTTAGGGCA	0.15
TTATCTGCAAAGGATTGGTG	0.45
TCTATTAAACATTTTAAGAA	≥ 1
CGTTCATGGTCCCGGGCGCT	0.76
GATAATTGTCCCTCCTTCTG	≥ 1
TTTCCTATGTAGGAGTTCAT	≥ 1
ATGCAGCCCTTTGAGAACCA	0.18
CACCAAGGGCAATTTCATGC	0.15
CCACAAGTATTTCCGGGTAA	0.36
ATGTAACTAAATCTAGCTTT	0.72
TGGTCCCGGGCGCTCAGGCC	0.23
AGGCTTCTGTCATTTGGTTC	0.3
ATGGCCTCCCCGTTCATGGT	0.51
GATACGCCCCTGCACGAGCG	0.65
CCTCCCCGTTCATGGTCCCG	0.24
CATGGTCCCGGGCGCTCAGG	≥ 1
ATCAGGCTGTTGACTTTATT	0.53
GTGCTCGGTGAGGTATATCA	0.18

Sequence	remaining target (mRNA or protein) (fraction of control)
ATACTTCATAAAATCAAATT	≥ 1
TATCCTTTTATGAAACACAT	0.69
GCAGATGGCCTCCCCGTTCA	0.84
AAATAACAGTCTTGAGCTTT	0.73
TGAAATTCATTGTCCAATAA	0.99
TCTTTCATGATCAAGTCCCT	0.42
GGCCTCCCCGTTCATGGTCC	0.45
CCAGGCTGCAGACGTTCTGA	0.3
GCAGGTCGGCGAGTTTGTGG	≥ 1
CGAACCAGAGCTGACTTCTT	0.28
GTCAGTAGTGTCTAGTAATT	0.52
TGCATAGCTATATATATCGT	0.77
TTCATGGTCCCGGGCGCTCA	0.53
CCCGTTCATGGTCCCGGGCG	0.6
ATTGCATCTTAGACAAGTAA	≥ 1
AGATGGCCTCCCCGTTCATG	0.51
ATAAAGCTTTAATACTCACG	0.93
TCCCCGTTCATGGTCCCGGG	0.24
TTACATGCTTTTATTTTGAA	0.5
GAGCAGCGGAGTGTGGATGT	0.3

Target: NCOA2
Details: ASO

Sequence	remaining target (mRNA or protein) (fraction of control)
AGAACTGGTCTTTCCTTC	0.92
CTGGCTTCAGCAGTGTCA	0.72
GTAGGCACGGAGGTCACT	≥ 1
ACTCATCTTGAACACATA	≥ 1
ATTCTCTTTCTTCTTGGG	0.71
AGGGTTGCTCATAGTTGC	0.61
TTTCTCCCATCCCACTCA	0.87
GGGAAAAGCTGTGGTAAT	0.79
CCCTAAATTTCCTTGGTT	0.82
ATCGGCTCGGGTCGGTCA	0.38
GGATTTCCCTCTGTCTCT	0.32
CCAAGTTGGTCAGGACAT	≥ 1
TTCATGGCACTGGTGGTA	0.85
GCTGGGTTGGCCTGAGAC	≥ 1
CTGCGCATGGAACTTCTG	0.45
TCAGCAGTGTCAGCAATA	≥ 1
GAGAGACAGCGAAGCACT	0.29
GGCCCCAGCGCATCCTTG	0.45
AAGCCAACGATGACCCTA	0.2
TGCCTTCCAGGTTCACTA	0.99

Sequence	remaining target (mRNA or protein) (fraction of control)
TGCACTTCATCTATGTTG	0.5
GACGCCACCCTGGGAACC	0.74
AACCACCAAACCTGCCCA	0.42
TTCTGAATCAGGTAAAGG	≥ 1
CATTTACTATAGACTTTG	0.79
CATCCCACTCATCTTGAA	≥ 1
TGCTGTGGGAAAACGGGC	0.43
GTTATACCTTAGATACTG	0.84
CCAACATGCAAGATGCTA	0.83
CTCTGTGAAATTCGCAGT	≥ 1
GGACATAGCAAGTCATCT	0.62
GCAAGCTACCTGTGGAGT	0.5
TGCACATTTGTCAGGTTT	0.18
CAGCAATATTTCCGTGTT	0.88
CTATTAATTTTGTGTTAC	≥ 1
GCTGTGCTTGGAGGCGAT	0.43
AAAACTGACTGGGTGGGA	≥ 1
GAAGCATATGTAAAGATA	≥ 1
TCTGCCCTTTGCTGTCAT	0.59
CTGTCAACATTTACTTGG	≥ 1

Target: MAP4K4
Details: ASO

Sequence	remaining target (mRNA or protein) (fraction of control)
TTTGATTCTTTCATATTTTA	0.82
CCATCCAAGTGACCAGTTTC	0.29
AATAAAACCAACGGCATGTT	0.81
GGTACGATCTATATGATCCT	0.8
GACTGAGTCTGGCGGACGAT	0.84
CCTGCCTGGCTATTCTGCTG	0.43
CCTTGATATCCCGGTGAATC	0.23
GAACCATCTGCACATGATTT	0.48
GTACGTCCATTTGTTGAAAT	0.51
GCCTTGATTTATTTTGGAGT	0.92
CCTCATCTTCATAGCACACC	0.82
CACCACAGATGTCACTGTTG	0.45
CCTGCTGCAGTCTCAGGAAA	0.37
CACACAGAATCTCAGAGTTA	0.61
TAAACCTGACTGCTGCCACC	0.53
AGGTGGCATCTGGGTTCTCA	0.46
ACTTCCTCCTCTTCTTCCTC	0.41
ATGTCGACCCTTATAGACTT	0.39
AAACAAAATGGGACCCCTTA	0.56
